Experiments:
LNCaP C4-2B [1] = assay: Cytotoxicity against human enzalutamide-resistant LNCaP C4-2B cells assessed as reduction in cell viability at 50 uM after 72 hrs by MTT assay relative to control; type: functional
MDA-MB-468 [2] = assay: Cytotoxicity against human MDA-MB-468 cells assessed as reduction in cell viability at 50 uM after 72 hrs by MTT assay relative to control; type: functional
MCF7 [3] = assay: Cytotoxicity against human MCF7 cells assessed as reduction in cell viability at 50 uM after 72 hrs by MTT assay relative to control; type: functional
RAW264.7 = assay: Inhibition of LPS-induced NO production in mouse RAW264.7 cells at 50 uM relative to control; type: functional
LNCaP C4-2B [4] = assay: Cytotoxicity against human LNCaP C4-2B cells assessed as reduction in cell viability at 50 uM after 72 hrs by MTT assay relative to control; type: functional
LNCaP C4-2B [5] = assay: Cytotoxicity against human enzalutamide-resistant LNCaP C4-2B cells assessed as reduction in cell viability after 72 hrs by MTT assay; type: functional, cell-based
LNCaP C4-2B [6] = assay: Cytotoxicity against human LNCaP C4-2B cells assessed as reduction in cell viability after 72 hrs by MTT assay; type: functional, cell-based
MDA-MB-468 [7] = assay: Cytotoxicity against human MDA-MB-468 cells assessed as reduction in cell viability after 72 hrs by MTT assay; type: functional, cell-based; conditions: MDA-MB-468, 72 h
MCF7 [8] = assay: Cytotoxicity against human MCF7 cells assessed as reduction in cell viability after 72 hrs by MTT assay; type: functional, cell-based; conditions: MCF7, 72 h

In the case of `COC(=O)CCc1cc(=O)c2c(OC)cc(OC)cc2o1`, the Activity (LNCaP C4-2B [1]) is reported as less than 30%, the Activity (MDA-MB-468 [2]) is reported as less than 30% and the Activity (MCF7 [3]) is reported as less than 30%. It also gave an inhibition at 50 µM (RAW264.7) of less than 30% and an Activity (LNCaP C4-2B [4]) of less than 30%.

`COc1cc(O)c2c(=O)cc(CCCCCCC(=O)O)oc2c1` was tested, and the Activity (LNCaP C4-2B [1]) was less than 30%, the Activity (MDA-MB-468 [2]) was less than 30% and the Activity (MCF7 [3]) was less than 30%. For the same molecule, the inhibition at 50 µM (RAW264.7) was less than 30% and the Activity (LNCaP C4-2B [4]) was less than 30%.

`COC1=C(O)C(=O)c2c(O)cccc2[C@@]1(OC)[C@@H](C)C1=CC(=O)OC1` was tested, and the IC50 (LNCaP C4-2B [5]) was 14 µM, the Activity (LNCaP C4-2B [1]) was greater than 50% and the Activity (MDA-MB-468 [2]) was greater than 50%. The IC50 (LNCaP C4-2B [6]) was 9.1 µM, the IC50 (MDA-MB-468 [7]) was 15 µM and the IC50 (MCF7 [8]) was 21 µM. For the same molecule, the Activity (MCF7 [3]) was greater than 50%, the inhibition at 50 µM (RAW264.7) was less than 30% and the Activity (LNCaP C4-2B [4]) was greater than 50%.

With `COC(=O)CCCCCCc1cc(=O)c2c(OC)cc(OC)cc2o1` the Activity (LNCaP C4-2B [1]) was less than 30%, the Activity (MDA-MB-468 [2]) was less than 30% and the Activity (MCF7 [3]) was less than 30%. For the same molecule, the inhibition at 50 µM (RAW264.7) was less than 30% and the Activity (LNCaP C4-2B [4]) was less than 30%.

Molecule `COC(=O)CCCc1cc(=O)c2c(OC)cc(O)cc2o1` has an Activity (LNCaP C4-2B [1]) of less than 30%, an Activity (MDA-MB-468 [2]) of less than 30% and an Activity (MCF7 [3]) of less than 30%. For the same molecule, the inhibition at 50 µM (RAW264.7) was less than 30% and the Activity (LNCaP C4-2B [4]) was less than 30%.

Molecule `COC1=CC(=O)c2c(O)cccc2C1=O` has an IC50 (LNCaP C4-2B [5]) of 13 µM, an Activity (LNCaP C4-2B [1]) greater than 50% and an Activity (MDA-MB-468 [2]) greater than 50%. It also gave an IC50 (LNCaP C4-2B [6]) of 6.4 µM, an IC50 (MDA-MB-468 [7]) of 4.9 µM and an IC50 (MCF7 [8]) of 11 µM. It also gave an Activity (MCF7 [3]) greater than 50%, an inhibition at 50 µM (RAW264.7) of less than 30% and an Activity (LNCaP C4-2B [4]) greater than 50%.

In the case of `COC(=O)CCCCCCc1cc(=O)c2c(O)cc(O)cc2o1`, the Activity (LNCaP C4-2B [1]) is reported as less than 30%, the Activity (MDA-MB-468 [2]) is reported as less than 30% and the Activity (MCF7 [3]) is reported as less than 30%. For the same molecule, the inhibition at 50 µM (RAW264.7) was less than 30% and the Activity (LNCaP C4-2B [4]) was less than 30%.

In the case of `COc1cc(OC)c2c(=O)cc(CCCCCCC(=O)O)oc2c1`, the Activity (LNCaP C4-2B [1]) is reported as less than 30%, the Activity (MDA-MB-468 [2]) is reported as less than 30% and the Activity (MCF7 [3]) is reported as less than 30%. For the same molecule, the inhibition at 50 µM (RAW264.7) was less than 30% and the Activity (LNCaP C4-2B [4]) was less than 30%.

`COc1cc(OC)c2c(=O)cc(CCCC/C=C/C(=O)O)oc2c1` gave an Activity (LNCaP C4-2B [1]) of less than 30%, an Activity (MDA-MB-468 [2]) of less than 30% and an Activity (MCF7 [3]) of less than 30%. For the same molecule, the inhibition at 50 µM (RAW264.7) was less than 30% and the Activity (LNCaP C4-2B [4]) was less than 30%.

`COC(=O)CCCCCCc1cc(=O)c2c(OC)cc(O)cc2o1` was tested, and the Activity (LNCaP C4-2B [1]) was less than 30%, the Activity (MDA-MB-468 [2]) was less than 30% and the Activity (MCF7 [3]) was less than 30%. The inhibition at 50 µM (RAW264.7) was less than 30% and the Activity (LNCaP C4-2B [4]) was less than 30%.

Work on `COC1=C(O)C(=O)c2c(O)cccc2C1=O` yielded an IC50 (LNCaP C4-2B [5]) greater than 50 µM, an Activity (LNCaP C4-2B [1]) greater than 50% and an Activity (MDA-MB-468 [2]) greater than 50%. It also gave an IC50 (LNCaP C4-2B [6]) of 41 µM, an IC50 (MDA-MB-468 [7]) of 38 µM and an IC50 (MCF7 [8]) greater than 50 µM. It also gave an Activity (MCF7 [3]) greater than 50%, an inhibition at 50 µM (RAW264.7) of less than 30% and an Activity (LNCaP C4-2B [4]) greater than 50%.

With `O=C(O)CCCCCCc1cc(=O)c2c(O)cc(O)cc2o1` the Activity (LNCaP C4-2B [1]) was less than 30%, the Activity (MDA-MB-468 [2]) was less than 30% and the Activity (MCF7 [3]) was less than 30%. It also gave an inhibition at 50 µM (RAW264.7) of less than 30% and an Activity (LNCaP C4-2B [4]) of less than 30%.

For `COC(=O)CCCCc1cc(=O)c2c(OC)cc(OC)cc2o1`, the Activity (LNCaP C4-2B [1]) was less than 30%, the Activity (MDA-MB-468 [2]) was less than 30% and the Activity (MCF7 [3]) was less than 30%. The inhibition at 50 µM (RAW264.7) was less than 30% and the Activity (LNCaP C4-2B [4]) was less than 30%.

For `COc1cc(OC)c2c(=O)cc(CCCCC(=O)O)oc2c1`, the Activity (LNCaP C4-2B [1]) was less than 30%, the Activity (MDA-MB-468 [2]) was less than 30% and the Activity (MCF7 [3]) was less than 30%. The inhibition at 50 µM (RAW264.7) was less than 30% and the Activity (LNCaP C4-2B [4]) was less than 30%.

Molecule `COC(=O)CCCCCCc1cc(=O)c2c(O)cc(OC)cc2o1` has an Activity (LNCaP C4-2B [1]) of less than 30%, an Activity (MDA-MB-468 [2]) of less than 30% and an Activity (MCF7 [3]) of less than 30%. For the same molecule, the inhibition at 50 µM (RAW264.7) was less than 30% and the Activity (LNCaP C4-2B [4]) was less than 30%.

From ChEMBL document CHEMBL4673242, “Penithoketone and Penithochromones A-L, Polyketides from the Deep-Sea-Derived Fungus Penicillium thomii YPGA3” (J Nat Prod, 2020)
